The record followed here is publication PMC4640093, “Lipophilic prodrugs of nucleoside triphosphates as biochemical probes and potential antivirals” (Nature Communications, 2015).

What is called EC50 is the concentration that produces a half-maximal response. One may read the CC50 as the concentration at which the toxic effect on the cells reaches its halfway point.

Data set [1] addresses T1, HIV RT (Human immunodeficiency virus type 1 group M subtype B, UniProt P03366).
T1 construct: Primer extension assays with HIV reverse transcriptase; purchased Roboklon
The data set is described as follows: Primer extension assay with HIV reverse transcriptase using PLE hydrolysate. It is filed as biochemical. The following applies: hydrolysate after complete consumption of prodrug and intermediate; 2.5 μM, 37 °C, 10 min. How it is done:
To confirm the prodrug concept and thus the direct successful release of the biologically active triphosphate metabolite, the prodrug 3e was exposed to PLE and the hydrolysis monitored with RP-18-HPLC. After complete consumption of 3e as well as its intermediate 4e the solvents were removed. For the template/primer extension assay (Fig. 4a), HIV RT was incubated with the PLE hydrolysate as such (T*) or with the PLE hydrolysate in the additional presence of dCTP (T*, C), or dCTP+dGTP (T*, C, G) or all natural 2′-deoxynucleotides (N*). […] In addition, TriPPPro-TTP 3r was synthesized (Fig. 5) and also investigated in the same way. […] The primer could be fully extended till 30 nt when T* was added in the presence of dCTP and dGTP, as also the N* and N samples could.
The used polymerase HIV RT was obtained from Roboklon. The primer and template were purchased from Life Technologies.
The primer extension assays were performed under the following conditions:
The primer was labelled using [γ^32P]-ATP according to standard techniques. After 5-min incubation at 95 °C in 20 mM Tris-HCl (pH 7.6) and 50 mM NaCl, the hybridization/annealing of the primer to the template strand was achieved by a cooling phase from 95 to 20 °C over 3 h. […]

Data set [2] has as its system HIV-2(ROD). Put plainly: Anti-HIV activity assay, HIV-2 in TK-deficient CEM/TK− cells. The data set is classed as cell-based. The following applies: thymidine kinase-deficient CEM/TK− cells, mean±s.d., n=2–3. Here is the method:
(§1) Inhibition of HIV-1(IIIB)- and HIV-2(ROD)-induced cytopathicity in wild-type CEM/0 and TK-deficient CEM/TK^− cell cultures was measured in microtitre 96-well plates containing ∼3 × 10^5 CEM cells ml^−1 infected with 100 CCID50 of HIV per millilitre and containing appropriate dilutions of the test compounds. After 4−5 days of incubation at 37 °C in a CO2-controlled humidified atmosphere, CEM giant (syncytium) cell formation was examined microscopically. The EC50 (50% effective concentration) was defined as the compound concentration required to inhibit HIV-induced giant cell formation by 50%.

Data set [3] can be described thus: Chemical hydrolysis in PBS, pH 7.3. The settings on record: for t1/2(1) PBS, pH=7.3: removal of first masking unit (half-lives of 3); for t1/2(1) PBS, pH=7.3 / t1/2(2) PBS, pH=7.3: PBS pH 7.3, 37 °C; for t1/2(2) PBS, pH=7.3: second hydrolysis step, half-lives of intermediate 4 to give d4TTP 19. It is filed as physicochemical. Here is the method:
Stock solutions (50 mM in DMSO-d6) of the appropriate compounds were prepared. After dilution of 11 μl with 100 μl Millipore water and 189 μl DMSO-d6 to 1.9 mM hydrolysis solutions the reaction was started by the addition of 300 μl PBS (50 mM, pH 7.3). The solution was incubated at 37 °C in a thermomixer. An initial aliquot (25 μl) was taken directly and analysed by analytical HPLC at 265–266 nm. Further aliquots were taken for monitoring the kinetic hydrolysis. The exponential decay curves (pseudo-first order) based on absolute integral values were calculated with commercially available software (OriginPro 9.0G) and yielded the half-lives t1/2(1) and t1/2(2) of the prodrugs via one determination.

In data set [4] the test system is HIV-2(ROD). Put plainly: Anti-HIV activity assay, HIV-2 in wild-type CEM/0 cells. The data set is classed as cell-based. The settings on record: read-out: EC50 CEM HIV-2. Here is the method: as §1
In data set [5] the test system is pig liver esterase (PLE). The data set is described as follows: Enzymatic hydrolysis with pig liver esterase (PLE) in PBS. The settings on record: PLE in PBS pH 7.3, 37 °C; for t1/2(1) PLE: removal of first masking unit (half-lives of 3); for t1/2(2) PLE: second hydrolysis step, half-lives of intermediate 4. It is filed as in vitro ADME. Here is the method: Furthermore, 140 μl of the 6.0 mM solution was diluted with 105 μl DMSO-d6 and 700 μl 50 mM PBS buffer. The reaction was started by addition of 52.5 μl of PLE in PBS buffer (3 mg ml^−1) and the mixture was incubated at 37 °C in a thermomixer. At different times, aliquots (125 μl) were taken and treated as follows: (a) for 3a–g,l,m and 4a,e the reaction was stopped by addition to 132.5 μl MeOH. […] (b) For 3h,i,k,n and 4j, the sample was directly frozen in liquid nitrogen.

Data set [6] has as its system HIV-1(IIIB). Put plainly: Anti-HIV activity assay, HIV-1 in wild-type CEM/0 cells. The settings on record: HIV-induced giant cell formation, mean±s.d., n=2–3. The data set is classed as cell-based. Here is the method: as §1
Data set [7] in a line: Enzyme-catalysed hydrolysis in CEM cell extracts. The following applies: human CEM cell extract, 37 °C.
Method: The hydrolysis mixtures were analysed by means of analytical RP-18-HPLC.
A volume of 10 μl of the appropriate 50 mM DMSO-d6 stock solution was diluted to 6.0 mM hydrolysis solution by addition of 73.3 μl DMSO-d6. Seven different samples including 10 μl water and 10 μl hydrolysis solution were prepared. The reaction was started by addition of 50 μl human CEM cell extract and the mixture was incubated at 37 °C for different time periods of hydrolysis. The work-up depended on the particular compound: (a) for 3a–f,l,m,p and 4a,e the reactions were stopped by addition of 150 μl MeOH. The solution was kept on ice for 5 min followed by centrifugation for 5 min (13,000 r.p.m.). The supernatants were filtered (Chromafil RC-20/15 MS, 0.2 μm) and stored in liquid nitrogen. (b) For 3g–i,k,n and 4j, the samples were directly frozen in liquid nitrogen. The solution was defrosted followed by ultrasonication for 10 min. After centrifugation for 5 min the supernatants were filtered (Chromafil AO-20/3, 0.2 μm) and stored at −196 °C. (c) For 3j the mixture was diluted with 70 μl THF (HPLC grade) and frozen in liquid nitrogen followed by defrosting, ultrasonication, centrifugation, filtration and stored as described for (b). Samples were defrosted and 50–80 μl were subjected to HPLC analysis.
Human CD4^+ T-lymphocyte CEM cells were grown in RPMI-1640-based cell culture medium to a final density of ∼3·10^6 cells ml^−1. Then, cells were centrifuged for 10 min at 1,250 r.p.m. at 4 °C, washed twice with cold PBS and the pellet was resuspended at 10^8 cells ml^−1 and sonicated (Hielscher Ultrasound Techn., 100% amplitude, three·times for 10 s) to destroy cell integrity. The resulting cell suspension was then centrifuged at 10,000 r.p.m. to remove cell debris, and the supernatant divided into aliquots before being frozen at −80 °C and used.
For data set [8], the system named is CD4+ T-cell (CEM). The data set is described as follows: Cytotoxicity: inhibition of CEM cell proliferation. The following applies: 50% cytostatic concentration, mean±s.d., n=2–3. It is filed as cell-based, human.
The nature of data set [9]: Cytotoxicity: inhibition of CEM cell proliferation. The data set is classed as cell-based, human. The following applies: human, CEM cells (CD4+ T-cells), 50% cytostatic concentration, mean±s.d., n=2–3.
Setting [10] is: wild-type CEM cells, HIV-induced giant cell formation, mean±s.d., n=2–3.

`CCCCCCCCC(=O)Oc1ccc(COP(=O)(OCc2ccc(OC(=O)CCCCCCCC)cc2)OP(=O)(O)OP(=O)(O)OC[C@@H]2C=C[C@H](n3cc(C)c(=O)[nH]c3=O)O2)cc1` [3e, γ-Bis-(4-nonanoyloxybenzyl)-d4TTP]: in data set [1], the “primer extension by HIV RT with PLE hydrolysate of the prodrug” value is given as “immediate DNA chain termination”. A half-maximal effect in [2] (EC50) was put at 2260 ± 1030 nM. In addition, in data set [3], the “t1/2(1) PBS, pH=7.3” value amounted to 52 h and the “t1/2(2) PBS, pH=7.3” value is reported as 390 h. Besides, the EC50 in data set [4] (setting [10]) was 620 ± 300 nM. In addition, in data set [5], the “t1/2(1) PLE” value was 0.013 h and the “t1/2(2) PLE” value was determined as 1.6 h. Moreover, in [6], it took 310 ± 10 nM to reach a half-maximal effect (EC50). The “t1/2(1) CEM” value in [7] amounted to 2.5 h. In data set [8], this compound yielded a CC50 of 52000 ± 1000 nM.
In data set [2], `CCCCCCCCCCCC(=O)Oc1ccc(COP(=O)(OCc2ccc(OC(=O)CCCCCCCCCCC)cc2)OP(=O)(O)OP(=O)(O)OC[C@@H]2C=C[C@H](n3cc(C)c(=O)[nH]c3=O)O2)cc1` [3g, γ-Bis-(4-dodecanoyloxybenzyl)-d4TTP] registered an EC50 of 720 ± 160 nM. Besides, in data set [3], the “t1/2(1) PBS, pH=7.3” value was determined as 68 h and the “t1/2(2) PBS, pH=7.3” value is listed as 410 h. Also, in data set [4] (setting [10]), the EC50 turned out to be 270 ± 60 nM. In data set [5], the “t1/2(1) PLE” value was found to be 0.95 h and the “t1/2(2) PLE” value stood at 8.3 h. The compound further returned an EC50 in data set [6] of 210 ± 10 nM. Also, the “t1/2(1) CEM” value in data set [7] is reported as 2.2 h. Also, the CC50 in [8] came to 26000 nM.
For `Cc1cn([C@H]2C=C[C@@H](CO)O2)c(=O)[nH]c1=O` [d4T, 3′-deoxy-2′,3′-didehydrothymidine, reference compound], the concentration for a half-maximal effect (EC50) stood at 150000 ± 9000 nM in data set [2] (Human immunodeficiency virus 2); 890 nM in [4] (Human immunodeficiency virus 2, CCRF-CEM); 330 ± 110 nM in data set [6] (Human immunodeficiency virus 1, IIIB, CCRF-CEM). Also, the “time in which amount of thymine doubles (cleavage of the glycosidic bond)” value in data set [3] (long chemical hydrolysis time periods) was found to be 63 h. Also, half-maximal cytotoxicity in [9] (CC50) was put at 79000 ± 3000 nM.
For the compound `CCCCCCCCCCCCCC(=O)Oc1ccc(COP(=O)(OCc2ccc(OC(=O)CCCCCCCCCCCCC)cc2)OP(=O)(O)OP(=O)(O)OC[C@@H]2C=C[C@H](n3cc(C)c(=O)[nH]c3=O)O2)cc1` [3h, γ-Bis-(4-tetradecanoyloxybenzyl)-d4TTP], the EC50 amounted to 1630 ± 520 nM in [2], 1100 ± 230 nM in data set [4] (setting [10]) and 500 ± 140 nM in data set [6]. In addition, the “t1/2(1) PBS, pH=7.3” value in data set [3] amounted to 90 h. Moreover, the “t1/2(2) PBS, pH=7.3” value in data set [3] stood at 355 h. The “t1/2(1) PLE” value in data set [5] worked out at 30 h. For the same compound, the “t1/2(1) CEM” value in data set [7] was 4.6 h. Moreover, in data set [8], the midpoint of cytotoxicity, the CC50, lay at 28000 ± 7000 nM.
Turning to `CCCCCCCCCCCCCCCCCC(=O)Oc1ccc(COP(=O)(OCc2ccc(OC(=O)CCCCCCCCCCCCCCCCC)cc2)OP(=O)(O)OP(=O)(O)OC[C@@H]2C=C[C@H](n3cc(C)c(=O)[nH]c3=O)O2)cc1` [3j, γ-Bis-(4-octadecanoyloxybenzyl)-d4TTP], the EC50 in data set [2] was found to be 280 ± 40 nM; in [4] (setting [10]) it was 310 nM; in data set [6], 170 nM. Besides, the “t1/2(1) PBS, pH=7.3” value in data set [3] was 50 h. Further, the “t1/2(2) PBS, pH=7.3” value in data set [3] is recorded as 583 h. The “t1/2(1) PLE” value in [5] was 37 h. Moreover, the “t1/2(1) CEM” value in [7] turned out to be 13 h. In data set [8], the CC50 worked out at 29000 ± 9000 nM.
In the case of `CC(=O)Oc1ccc(COP(=O)(OCc2ccc(OC(C)=O)cc2)OP(=O)(O)OP(=O)(O)OC[C@@H]2C=C[C@H](n3cc(C)c(=O)[nH]c3=O)O2)cc1` [3a, γ-Bis-(4-acetyloxybenzyl)-d4TTP], in data set [2], the 50% effective concentration (EC50) is greater than 10000 nM. For the same compound, in data set [3], the “t1/2(1) PBS, pH=7.3” value is recorded as 18 h and the “t1/2(2) PBS, pH=7.3” value is listed as 75 h. For the same compound, the EC50 in data set [4] (setting [10]) is 720 ± 160 nM. For the same compound, in data set [5], the “t1/2(1) PLE” value came out at 1.9 h and the “t1/2(2) PLE” value came to 71 h. The compound also showed an EC50 in [6] of 430 ± 250 nM. Moreover, the “t1/2(1) CEM” value in [7] is recorded as 0.050 h. Besides, the CC50 in data set [8] was found to be 63000 ± 2000 nM.
